Assay results as given in ChEMBL document CHEMBL1140567, “2-Aryl benzimidazoles featuring alkyl-linked pendant alcohols and amines as inhibitors of checkpoint kinase Chk2” (Bioorg Med Chem Lett, 2007).
Converted amounts (≈) assume the structure as drawn.

How the values were obtained:
[1] = Solubility in stimulated intestinal fluid at pH 7 after 3 days; format: physicochemical; details: simulated intestinal fluid
[2] = Solubility in stimulated gastric fluid at pH 2 umol after 3 days; format: physicochemical; details: simulated gastric fluid

Structure (SMILES) | solubility at 72 h [1] | solubility at 72 h [2]
NC(=O)c1ccc2[nH]c(-c3ccc(OCCCO)cc3)nc2c1 | 7 µM (≈ 2.18 µg/mL) | 185 µM (≈ 57.6 µg/mL)
NC(=O)c1ccc2[nH]c(-c3ccc(OCC4CCNCC4)cc3)nc2c1 | > 400 µM | > 400 µM
NC(=O)c1ccc2[nH]c(-c3ccc(OCCO)cc3)nc2c1 | > 400 µM | > 400 µM
NC(=O)c1ccc2[nH]c(-c3ccc(OC4CCCNC4)cc3)nc2c1 (stereo not given) | > 400 µM | > 400 µM
NC(=O)c1ccc2[nH]c(-c3ccc(OCC4CCCN(Cc5ccccc5)C4)cc3)nc2c1 (stereo not given) | 267 µM (≈ 118 µg/mL) | > 400 µM
NC(=O)c1ccc2[nH]c(-c3ccc(OCCCN4CCCCC4)cc3)nc2c1 | > 400 µM | > 400 µM
NC(=O)c1ccc2[nH]c(-c3ccc(OCCN4CCCCC4)cc3)nc2c1 | > 400 µM | > 400 µM
CN1CCC(Oc2ccc(-c3nc4cc(C(N)=O)ccc4[nH]3)cc2)CC1 | > 400 µM | > 400 µM
NC(=O)c1ccc2[nH]c(-c3ccc(OCC4CCN(Cc5ccccc5)CC4)cc3)nc2c1 | > 400 µM | > 400 µM
NC(=O)c1ccc2[nH]c(-c3ccc(OC4CCC(O)C4)cc3)nc2c1 (stereo not given) | 139 µM (≈ 46.9 µg/mL) | > 400 µM
CN(C)CCCOc1ccc(-c2nc3cc(C(N)=O)ccc3[nH]2)cc1 | > 400 µM | > 400 µM
NC(=O)c1ccc2[nH]c(-c3ccc(OCCC4CCN(Cc5ccc(Cl)c(Cl)c5)CC4)cc3)nc2c1 | 15 µM (≈ 7.85 µg/mL) | 13 µM (≈ 6.81 µg/mL)
CC(=O)N1CCC(CCOc2ccc(-c3nc4cc(C(N)=O)ccc4[nH]3)cc2)CC1 | 2 µM (≈ 0.813 µg/mL) | 87 µM (≈ 35.4 µg/mL)
NC(=O)c1ccc2[nH]c(-c3ccc(OCCC4CCN(C(=O)c5ccccc5)CC4)cc3)nc2c1 | 3 µM (≈ 1.41 µg/mL) | 3 µM (≈ 1.41 µg/mL)

Next, values leading:

solubility at 72 h [1] | solubility at 72 h [2] | Structure (SMILES)
193 µM (≈ 78.5 µg/mL) | > 400 µM | CC(=O)N1CCCCC1CCOc1ccc(-c2nc3cc(C(N)=O)ccc3[nH]2)cc1 (stereo not given)
18 µM (≈ 8.43 µg/mL) | 28 µM (≈ 13.1 µg/mL) | NC(=O)c1ccc2[nH]c(-c3ccc(OCCC4CCCCN4C(=O)c4ccccc4)cc3)nc2c1 (stereo not given)
84 µM (≈ 40.7 µg/mL) | > 400 µM | COc1ccc(CN2CCCCC2CCOc2ccc(-c3nc4cc(C(N)=O)ccc4[nH]3)cc2)cc1 (stereo not given)
229 µM (≈ 120 µg/mL) | 39 µM (≈ 20.4 µg/mL) | NC(=O)c1ccc2[nH]c(-c3ccc(OCCC4CCCCN4Cc4ccc(Cl)c(Cl)c4)cc3)nc2c1 (stereo not given)
3 µM (≈ 1.41 µg/mL) | 84 µM (≈ 39.4 µg/mL) | Cc1ccc(CN2CCC(CCOc3ccc(-c4nc5cc(C(N)=O)ccc5[nH]4)cc3)CC2)cc1
115 µM (≈ 56.2 µg/mL) | > 400 µM | NC(=O)c1ccc2[nH]c(-c3ccc(OCCC4CCCCN4Cc4ccc(Cl)cc4)cc3)nc2c1 (stereo not given)
155 µM (≈ 70.5 µg/mL) | > 400 µM | NC(=O)c1ccc2[nH]c(-c3ccc(OCCC4CCCCN4Cc4ccccc4)cc3)nc2c1 (stereo not given)
< 1 µM | > 400 µM | COc1ccc(CN2CCC(CCOc3ccc(-c4nc5cc(C(N)=O)ccc5[nH]4)cc3)CC2)cc1
97 µM (≈ 45.5 µg/mL) | > 400 µM | Cc1ccc(CN2CCCCC2CCOc2ccc(-c3nc4cc(C(N)=O)ccc4[nH]3)cc2)cc1 (stereo not given)
5 µM (≈ 2.27 µg/mL) | 110 µM (≈ 50 µg/mL) | NC(=O)c1ccc2[nH]c(-c3ccc(OCCC4CCN(Cc5ccccc5)CC4)cc3)nc2c1
2 µM (≈ 0.978 µg/mL) | 179 µM (≈ 87.5 µg/mL) | NC(=O)c1ccc2[nH]c(-c3ccc(OCCC4CCN(Cc5ccc(Cl)cc5)CC4)cc3)nc2c1
